Common to all, as to test: NCI tumour cell line growth inhibition, 48 h
The subject of assay [1] is SF-295.
The subject of assay [2] is HOP-62.
Assay [3] deals with OVCAR-3.
The test system of assay [4] is SW-620.
Assay [5] deals with OVCAR-5.
Assay [6] has as its system LOX IMVI.
The test system of assay [7] is IGROV-1.
For assay [8], the system named is SK-OV-3.
Assay [9] relates to HT-29.
The test system of assay [10] is M14.
Assay [11] concerns A498.
In assay [12] the test system is HCT-116.
Assay [13] concerns SR.
Assay [14] concerns NCI/ADR-RES.
In assay [15] the test system is SN12C.
Assay [16] concerns T47D.
Assay [17] relates to U-251.
The subject of assay [18] is CCRF-CEM.
For assay [19], the system named is RXF 393.
The subject of assay [20] is SNB-75.

We go through nine molecules from ChEMBL document CHEMBL1201862, “PubChem BioAssay data set” (2004).

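Where inhibition never reached the appropriate level, the endpoint shown equals the highest concentration tested. Otherwise, values were interpolated linearly from a five-concentration, 48-hour dose response in 96-well plates. GI50 is the concentration that inhibits growth by half.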 Calls of active or inactive are those of the source. No stated cut-off is given here; in the data, active = GI50 up to about 1.1 µM and inactive = higher. Some results are limits rather than exact numbers.

Regarding `O=C(Cn1c2c(c3ccccc31)CCCC2)N1CCCC1`, the GI50 in assay [1] was 61.8 µM (inactive); in assay [2], > 100 µM (inactive); in assay [3], 83.9 µM (inactive); in assay [4], > 100 µM (inactive); in [5], > 100 µM (inactive); in [6] it was > 100 µM (inactive). Also, the GI50 in assay [7] is > 100 µM (inactive); in [8] it was > 100 µM (inactive); in assay [9], > 100 µM (inactive); in assay [10], > 100 µM (inactive); in assay [11] it was 65 µM (inactive); in assay [12], 63.1 µM (inactive). Also, the GI50 in [13] is 88.9 µM (inactive); in assay [14], 96.4 µM (inactive); in [15], > 100 µM (inactive).

For `O=c1cc(CO)n(CCc2c[nH]c3ccccc23)cc1O`, the GI50 in [1] is > 100 µM (inactive); in assay [2], 62.7 µM (inactive); in assay [3], 26.2 µM (inactive); in assay [4], > 100 µM (inactive); in [5] it was 81.5 µM (inactive); in [6] it was > 100 µM (inactive). Also, the GI50 in [16] is 24.5 µM (inactive); in assay [7], 86.5 µM (inactive); in [8], 48.4 µM (inactive); in assay [9], 34 µM (inactive); in [10] it was 47.1 µM (inactive); in assay [17] it was 39.6 µM (inactive). Besides, the GI50 in assay [18] is 29.5 µM (inactive); in assay [12] it was 71.9 µM (inactive); in [14] it was 32.3 µM (inactive); in [15], 36.2 µM (inactive).

Consider `Cc1ccc(NC2=CC(=O)C(NO)c3ccccc32)cc1` (centres undefined), for which the GI50 in assay [1] is 3.98 µM (inactive); in assay [2], 3.39 µM (inactive); in [3], 0.61 µM (active); in assay [4], 3.24 µM (inactive); in [5] it was 8.59 µM (inactive); in assay [6], 2.93 µM (inactive). Also, the GI50 was 2.62 µM (inactive) in [19]; 2.74 µM (inactive) in [16]; 1.53 µM (inactive) in assay [7]; 10.8 µM (inactive) in assay [8]; 4.35 µM (inactive) in assay [9]; 2.94 µM (inactive) in assay [10]. The GI50 in [11] is 16.3 µM (inactive); in assay [17], 3.15 µM (inactive); in assay [20] it was 3.37 µM (inactive); in [12], 2.47 µM (inactive); in [14] it was 2.08 µM (inactive); in [15], 3.36 µM (inactive).

Take `COc1ccc(/C=C/[N+](=O)[O-])cc1`: the GI50 was 2.62 µM (inactive) in [1]; 8.07 µM (inactive) in assay [2]; 3.61 µM (inactive) in assay [3]; 2.83 µM (inactive) in assay [4]; 14.4 µM (inactive) in [5]; 2.13 µM (inactive) in assay [6]. Moreover, the GI50 in [7] was 3.57 µM (inactive); in assay [9], 3.24 µM (inactive); in assay [10], 2.79 µM (inactive); in [11] it was 5.15 µM (inactive); in assay [17], 4.03 µM (inactive); in [20] it was 14.9 µM (inactive). The GI50 in assay [12] was 6.67 µM (inactive); in assay [13], 2.03 µM (inactive); in assay [14], 30.7 µM (inactive); in [15], 16.3 µM (inactive).

Take `CCOC(=O)/C(=C\Nc1c(C)n(C)n(-c2ccccc2)c1=O)C(=O)c1ccccc1`: the GI50 in assay [1], in [2], in assay [3], in assay [4], in assay [5] and in assay [6] was > 100 µM (inactive) each time. In addition, the GI50 in assay [19], in assay [16], in [7], in assay [8], in assay [9] and in assay [10] was > 100 µM (inactive) each time. In addition, the GI50 in [11], in assay [17], in assay [18], in [12], in assay [13] and in assay [15] was > 100 µM (inactive) throughout.

Turning to `Cc1nc2ccccc2c(=O)n1NC(=O)c1ccc(N)cc1`, the GI50 in assay [1], in [2], in assay [3], in [4], in [5] and in [6] was > 100 µM (inactive) throughout. In addition, the GI50 in assay [19], in assay [16], in [7], in [8], in assay [9] and in assay [10] was > 100 µM (inactive) each time. The GI50 in assay [11] is > 100 µM (inactive); in assay [17], > 100 µM (inactive); in assay [18], > 100 µM (inactive); in [20] it was 14.6 µM (inactive); in [12], > 100 µM (inactive); in assay [13] it was > 100 µM (inactive). For the same molecule, in assay [15], the GI50 is > 100 µM (inactive).

With `N#Cc1c(N)n(-c2cccc(C(=O)O)c2)c(=O)c2cc([N+](=O)[O-])ccc12`, the GI50 in [4], in [6], in [16], in assay [9], in assay [11] and in [17] was > 100 µM (inactive) throughout. Besides, the GI50 in assay [20], in assay [12], in assay [14] and in assay [15] was > 100 µM (inactive) each time.

On to `CC1(C)CC(=O)C2=C(C1)NC1=C(C2)C(=O)CC(C)(C)C1`, for which the GI50 in assay [1], in assay [2], in [3], in assay [4], in [5] and in assay [6] was > 100 µM (inactive) each time. Moreover, the GI50 in [19], in assay [7], in assay [8], in [9], in assay [10] and in assay [11] was > 100 µM (inactive) in each case. Also, the GI50 in [17], in [18], in assay [20], in [12], in assay [13] and in assay [14] was > 100 µM (inactive) throughout. Moreover, in assay [15], the GI50 is > 100 µM (inactive).

With `C[C@H]1S[C@H](c2c(Cl)cccc2Cl)N2Cc3ccccc3N=C12`, the GI50 in assay [1] was 9.16 µM (inactive); in assay [2] it was 14 µM (inactive); in assay [3] it was 11.4 µM (inactive); in assay [4] it was 25.1 µM (inactive); in assay [5], 12 µM (inactive); in assay [6], 12.9 µM (inactive). In addition, the GI50 in assay [19] is 14.1 µM (inactive); in [16], 12.4 µM (inactive); in [7], 12.1 µM (inactive); in assay [8], 17.7 µM (inactive); in [10] it was 11.6 µM (inactive); in assay [11], 24.5 µM (inactive). For the same molecule, the GI50 in [17] is 23.4 µM (inactive); in assay [18] it was 21 µM (inactive); in assay [20] it was 14.1 µM (inactive); in assay [12], 4.35 µM (inactive); in assay [13], 8.07 µM (inactive); in assay [15], 29.2 µM (inactive).
